The text below walks through data of patent publication US9340590B2 (priority 2011, dated 2016).

Where two headings read alike, the source gives them in different places. Positions of bridges follow the written chain, without caps; N, C: chain ends. Non-standard residues stand in square brackets, D forms with d. Residues, ends and D or L forms follow the SMILES beside them. Bip = N[C@@H](Cc1ccc(-c2ccccc2)cc1)C(=O)O Where only a bound is given, the exact number is not on record here.

Assay in all cases: cell-based
One experiment has as its target hNav1.5 (Homo sapiens, UniProt Q14524). The following applies: IonWorks Quattro, read-out: IWQ Use Nav1.5.
The target in a further experiment is hNav1.7 (Homo sapiens, UniProt Q15858). The format is cell-based. The following applies: IonWorks Quattro, read-out: IWQ Use Nav1.7.
Another experiment concerns the target hNav1.3 (Homo sapiens, UniProt Q9NY46). The following applies: IonWorks Quattro, read-out: IWQ Use Nav1.3. In general terms: In patch-clamp work, channel activity is measured electrically.

Chain of hNav1.5 (Q14524 whole entry, looked up): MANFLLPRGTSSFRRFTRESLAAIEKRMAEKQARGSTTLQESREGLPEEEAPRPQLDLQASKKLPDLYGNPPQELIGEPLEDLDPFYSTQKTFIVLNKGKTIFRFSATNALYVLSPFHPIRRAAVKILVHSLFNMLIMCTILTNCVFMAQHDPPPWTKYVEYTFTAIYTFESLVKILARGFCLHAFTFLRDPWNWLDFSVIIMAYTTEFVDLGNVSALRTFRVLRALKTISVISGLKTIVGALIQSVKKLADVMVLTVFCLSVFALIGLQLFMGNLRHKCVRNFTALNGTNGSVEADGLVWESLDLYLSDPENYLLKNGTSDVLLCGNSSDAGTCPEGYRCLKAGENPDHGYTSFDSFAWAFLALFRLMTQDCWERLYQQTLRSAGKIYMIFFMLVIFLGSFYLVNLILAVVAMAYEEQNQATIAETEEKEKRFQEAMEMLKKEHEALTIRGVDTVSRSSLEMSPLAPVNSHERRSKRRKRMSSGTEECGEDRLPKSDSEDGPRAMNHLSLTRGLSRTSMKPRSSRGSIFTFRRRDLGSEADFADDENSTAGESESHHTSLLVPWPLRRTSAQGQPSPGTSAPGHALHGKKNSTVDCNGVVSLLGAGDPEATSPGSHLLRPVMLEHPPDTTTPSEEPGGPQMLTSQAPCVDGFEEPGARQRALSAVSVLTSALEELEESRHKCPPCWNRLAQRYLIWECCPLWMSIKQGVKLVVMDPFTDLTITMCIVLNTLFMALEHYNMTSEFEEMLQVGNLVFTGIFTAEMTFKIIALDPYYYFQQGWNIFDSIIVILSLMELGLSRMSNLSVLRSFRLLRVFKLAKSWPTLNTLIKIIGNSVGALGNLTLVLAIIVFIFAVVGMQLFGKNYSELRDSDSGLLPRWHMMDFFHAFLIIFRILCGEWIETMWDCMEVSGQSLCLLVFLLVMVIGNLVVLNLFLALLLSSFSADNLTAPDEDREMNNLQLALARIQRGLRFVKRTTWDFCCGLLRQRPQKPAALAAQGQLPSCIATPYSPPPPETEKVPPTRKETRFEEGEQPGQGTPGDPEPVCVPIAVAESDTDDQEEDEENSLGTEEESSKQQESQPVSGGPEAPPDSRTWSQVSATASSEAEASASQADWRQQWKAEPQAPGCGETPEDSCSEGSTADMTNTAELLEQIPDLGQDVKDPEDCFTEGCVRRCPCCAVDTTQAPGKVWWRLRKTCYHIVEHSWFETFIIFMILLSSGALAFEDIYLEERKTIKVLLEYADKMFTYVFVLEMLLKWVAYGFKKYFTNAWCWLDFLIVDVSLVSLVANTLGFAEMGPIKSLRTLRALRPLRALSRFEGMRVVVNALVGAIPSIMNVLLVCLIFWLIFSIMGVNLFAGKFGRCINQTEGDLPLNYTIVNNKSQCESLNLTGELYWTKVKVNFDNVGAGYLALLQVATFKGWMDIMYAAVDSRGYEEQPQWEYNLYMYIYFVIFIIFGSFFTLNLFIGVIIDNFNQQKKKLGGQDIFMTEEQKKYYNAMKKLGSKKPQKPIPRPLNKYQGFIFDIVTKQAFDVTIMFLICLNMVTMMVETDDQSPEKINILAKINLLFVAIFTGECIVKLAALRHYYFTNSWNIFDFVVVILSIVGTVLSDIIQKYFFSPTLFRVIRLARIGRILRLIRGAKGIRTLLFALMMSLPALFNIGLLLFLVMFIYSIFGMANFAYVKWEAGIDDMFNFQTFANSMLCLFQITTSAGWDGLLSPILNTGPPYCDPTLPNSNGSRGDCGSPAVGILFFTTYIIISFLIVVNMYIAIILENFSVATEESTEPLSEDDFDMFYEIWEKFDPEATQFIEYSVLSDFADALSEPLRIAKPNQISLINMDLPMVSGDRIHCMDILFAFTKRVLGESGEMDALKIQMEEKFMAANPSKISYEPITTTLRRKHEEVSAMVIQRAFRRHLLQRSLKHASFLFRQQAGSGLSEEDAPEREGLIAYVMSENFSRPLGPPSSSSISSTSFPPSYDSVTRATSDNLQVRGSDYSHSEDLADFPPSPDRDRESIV
Chain of hNav1.3 (Q9NY46 whole entry, looked up): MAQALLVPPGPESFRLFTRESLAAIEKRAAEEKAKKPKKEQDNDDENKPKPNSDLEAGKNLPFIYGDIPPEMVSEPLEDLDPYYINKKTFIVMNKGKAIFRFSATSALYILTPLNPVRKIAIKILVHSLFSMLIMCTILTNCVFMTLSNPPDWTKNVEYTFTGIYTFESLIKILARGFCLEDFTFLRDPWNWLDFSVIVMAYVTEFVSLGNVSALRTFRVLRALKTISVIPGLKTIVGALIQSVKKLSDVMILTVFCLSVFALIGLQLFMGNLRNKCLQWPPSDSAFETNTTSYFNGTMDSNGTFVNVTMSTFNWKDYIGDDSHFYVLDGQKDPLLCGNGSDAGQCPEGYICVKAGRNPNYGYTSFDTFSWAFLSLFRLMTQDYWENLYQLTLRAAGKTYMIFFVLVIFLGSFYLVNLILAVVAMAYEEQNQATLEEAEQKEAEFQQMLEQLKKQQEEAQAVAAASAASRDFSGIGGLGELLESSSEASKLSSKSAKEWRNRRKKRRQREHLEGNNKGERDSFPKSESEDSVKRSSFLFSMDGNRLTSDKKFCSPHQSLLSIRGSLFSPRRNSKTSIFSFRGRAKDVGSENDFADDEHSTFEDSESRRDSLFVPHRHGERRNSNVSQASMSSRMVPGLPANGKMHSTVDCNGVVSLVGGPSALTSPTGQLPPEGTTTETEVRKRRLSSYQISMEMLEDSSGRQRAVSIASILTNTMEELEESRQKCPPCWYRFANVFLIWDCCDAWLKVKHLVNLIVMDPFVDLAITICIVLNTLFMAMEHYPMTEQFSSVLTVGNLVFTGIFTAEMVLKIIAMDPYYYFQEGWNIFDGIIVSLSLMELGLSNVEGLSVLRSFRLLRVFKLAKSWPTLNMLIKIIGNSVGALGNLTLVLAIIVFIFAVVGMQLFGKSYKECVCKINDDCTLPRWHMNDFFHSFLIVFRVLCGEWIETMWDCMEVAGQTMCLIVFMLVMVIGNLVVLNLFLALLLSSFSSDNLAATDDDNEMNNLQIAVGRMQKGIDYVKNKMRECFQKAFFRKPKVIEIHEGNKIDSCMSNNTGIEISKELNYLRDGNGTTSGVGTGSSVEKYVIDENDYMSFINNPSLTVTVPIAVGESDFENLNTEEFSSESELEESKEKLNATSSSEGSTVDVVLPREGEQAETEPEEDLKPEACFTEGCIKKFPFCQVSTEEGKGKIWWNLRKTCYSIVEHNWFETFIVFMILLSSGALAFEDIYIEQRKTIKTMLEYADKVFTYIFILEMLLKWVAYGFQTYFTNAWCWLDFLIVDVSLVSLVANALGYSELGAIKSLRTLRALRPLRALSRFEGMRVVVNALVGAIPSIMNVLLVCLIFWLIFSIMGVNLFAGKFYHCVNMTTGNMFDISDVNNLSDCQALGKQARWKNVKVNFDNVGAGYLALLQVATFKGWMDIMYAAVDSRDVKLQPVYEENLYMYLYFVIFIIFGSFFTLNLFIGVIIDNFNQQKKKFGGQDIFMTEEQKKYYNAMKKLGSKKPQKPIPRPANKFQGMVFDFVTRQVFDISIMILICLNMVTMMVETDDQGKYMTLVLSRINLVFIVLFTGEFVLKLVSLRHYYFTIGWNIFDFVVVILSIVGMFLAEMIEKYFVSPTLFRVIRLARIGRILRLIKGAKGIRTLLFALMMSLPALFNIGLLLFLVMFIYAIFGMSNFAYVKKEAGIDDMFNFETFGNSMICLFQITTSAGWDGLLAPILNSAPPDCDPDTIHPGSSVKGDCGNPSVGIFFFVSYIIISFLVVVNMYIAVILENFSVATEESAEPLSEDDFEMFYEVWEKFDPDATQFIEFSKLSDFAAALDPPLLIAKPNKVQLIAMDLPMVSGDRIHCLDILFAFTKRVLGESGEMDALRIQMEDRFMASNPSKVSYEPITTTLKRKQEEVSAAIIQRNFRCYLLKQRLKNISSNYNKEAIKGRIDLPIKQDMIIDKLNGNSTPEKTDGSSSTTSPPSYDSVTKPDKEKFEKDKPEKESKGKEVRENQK

Consider `CC[C@H](C)[C@@H]1NC(=O)[C@@H]2CSSC[C@@H]3NC(=O)[C@H](C(C)C)NC(=O)[C@H](CC(C)C)NC(=O)[C@H](CC(N)=O)NC(=O)[C@@H]4CCCN4C(=O)[C@H](CCCNC(=N)N)NC(=O)[C@H](CSSC[C@H](NC(=O)[C@@H](N)CC(=O)O)C(=O)N[C@@H](CC(C)C)C(=O)NCC(=O)N[C@@H](Cc4ccccc4)C(=O)N[C@@H](CCSC)C(=O)N[C@@H](CCCNC(=N)N)C(=O)N[C@@H](CCCCN)C(=O)N2)NC(=O)[C@H](CSSC[C@@H](C(=O)N[C@@H](CCCCN)C(=O)N[C@@H](Cc2ccc(O)cc2)C(=O)N[C@H](C(=O)N[C@@H](Cc2ccccc2)C(N)=O)C(C)C)NC(=O)[C@H](Cc2ccc(-c4ccccc4)cc2)NC(=O)[C@H](CCCCN)NC(=O)[C@H](Cc2c[nH]cn2)NC(=O)[C@H]([C@@H](C)O)NC(=O)[C@H](CCCNC(=N)N)NC(=O)[C@H](CO)NC3=O)NC(=O)[C@H](CCCCN)NC(=O)[C@H](CC(=O)O)NC(=O)[C@H](CC(N)=O)NC(=O)[C@H](CC(=O)O)NC(=O)[C@@H]2CCCN2C1=O` [compound 360] (H-DCLGFMRKCIPDNDKCCRPNLVCSRTHK[Bip]CKYVF-NH2; disulfide 2-17, 9-23, 16-30), for which the IC50 on hNav1.5 (Table 24, use, […]) amounted to 9.77 µM; on hNav1.7 (Table 24, use, […]), 4.79 µM; on hNav1.3 (Table 24, use, […]), 6.95 µM.

Take `CC[C@H](C)[C@@H]1NC(=O)[C@@H]2CSSC[C@@H]3NC(=O)[C@H](C(C)C)NC(=O)[C@H](CC(C)C)NC(=O)[C@H](CC(N)=O)NC(=O)[C@@H]4CCCN4C(=O)[C@H](CCCNC(=N)N)NC(=O)[C@H](CSSC[C@H](NC(=O)[C@@H](N)CC(=O)O)C(=O)N[C@@H](CC(C)C)C(=O)NCC(=O)N[C@@H](Cc4ccccc4)C(=O)N[C@@H](CCSC)C(=O)N[C@@H](CCCNC(=N)N)C(=O)N[C@@H](CCCCN)C(=O)N2)NC(=O)[C@H](CSSC[C@@H](C(=O)N[C@@H](CCCCN)C(=O)N[C@@H](Cc2ccc(O)cc2)C(=O)N[C@H](C(=O)N[C@@H](Cc2ccccc2)C(N)=O)C(C)C)NC(=O)[C@H](Cc2c[nH]c4ccccc24)NC(=O)[C@H](CCCCN)NC(=O)[C@H](Cc2c[nH]cn2)NC(=O)CNC(=O)[C@H](CCCNC(=N)N)NC(=O)[C@H](CO)NC3=O)NC(=O)[C@H](CCCCN)NC(=O)[C@H](CC(=O)O)NC(=O)[C@H](CC(N)=O)NC(=O)[C@H](CC(=O)O)NC(=O)[C@@H]2CCCN2C1=O` [compound 343] (H-DCLGFMRKCIPDNDKCCRPNLVCSRGHKWCKYVF-NH2; disulfide 2-17, 9-23, 16-30): the IC50 at hNav1.5 (Table 22, use, […]) was found to be 4.07 µM; on hNav1.7 (Table 22, use, […]) it was 0.1 µM; on hNav1.3 (Table 22, use, […]), 0.09 µM.

In the case of `CC[C@H](C)[C@@H]1NC(=O)[C@@H]2CSSC[C@@H]3NC(=O)[C@H](C(C)C)NC(=O)[C@H](CC(C)C)NC(=O)[C@H](CC(N)=O)NC(=O)[C@@H]4CCCN4C(=O)[C@H](CCCNC(=N)N)NC(=O)[C@H](CSSC[C@H](NC(=O)[C@@H](N)CC(=O)O)C(=O)N[C@@H](CC(C)C)C(=O)NCC(=O)N[C@@H](Cc4ccccc4)C(=O)N[C@@H](CCSC)C(=O)N[C@@H](CCCNC(=N)N)C(=O)N[C@@H](CCCCN)C(=O)N2)NC(=O)[C@H](CSSC[C@@H](C(=O)N[C@@H](CCCCN)C(=O)N[C@@H](Cc2ccc(O)cc2)C(=O)N[C@@H](Cc2ccc(O)cc2)C(=O)N[C@@H](Cc2ccccc2)C(N)=O)NC(=O)[C@H](Cc2c[nH]c4ccccc24)NC(=O)[C@H](CCCCN)NC(=O)[C@H](Cc2c[nH]cn2)NC(=O)[C@H]([C@@H](C)O)NC(=O)[C@H](CCCNC(=N)N)NC(=O)[C@H](CO)NC3=O)NC(=O)[C@H](CCCCN)NC(=O)[C@H](CC(=O)O)NC(=O)[C@H](CC(N)=O)NC(=O)[C@H](CC(=O)O)NC(=O)[C@@H]2CCCN2C1=O` [compound 399] (H-DCLGFMRKCIPDNDKCCRPNLVCSRTHKWCKYYF-NH2; disulfide 2-17, 9-23, 16-30), the IC50 at hNav1.5 (Table 26, use, […]) was more than 5 µM; at hNav1.7 (Table 26, use, […]), 0.07 µM; at hNav1.3 (Table 26, use, […]), 0.03 µM.

For `CC[C@H](C)[C@@H]1NC(=O)[C@@H]2CSSC[C@@H]3NC(=O)[C@H](C(C)C)NC(=O)[C@H](CC(C)C)NC(=O)[C@H](CC(N)=O)NC(=O)[C@@H]4CCCN4C(=O)[C@H](CCCNC(=N)N)NC(=O)[C@H](CSSC[C@H](NC(=O)[C@@H](N)CC(=O)O)C(=O)N[C@@H](CC(C)C)C(=O)NCC(=O)N[C@@H](C)C(=O)N[C@@H](Cc4ccccc4)C(=O)N[C@@H](CCCNC(=N)N)C(=O)N[C@@H](CCCCN)C(=O)N2)NC(=O)[C@H](CSSC[C@@H](C(=O)N[C@@H](CCCCN)C(=O)N[C@@H](Cc2ccc(O)cc2)C(=O)N[C@H](C(=O)N[C@@H](Cc2ccccc2)C(=O)O)C(C)C)NC(=O)[C@H](Cc2c[nH]c4ccccc24)NC(=O)[C@H](CC(N)=O)NC(=O)[C@H](Cc2c[nH]cn2)NC(=O)[C@H]([C@@H](C)O)NC(=O)[C@H](CCCNC(=N)N)NC(=O)[C@H](CO)NC3=O)NC(=O)[C@H](CCCCN)NC(=O)[C@H](CC(=O)O)NC(=O)[C@H](CC(N)=O)NC(=O)[C@H](CC(=O)O)NC(=O)[C@@H]2CCCN2C1=O` [compound 832] (H-DCLGAFRKCIPDNDKCCRPNLVCSRTHNWCKYVF-OH; disulfide 2-17, 9-23, 16-30), the IC50 at hNav1.5 (use-dependent block, hNav1.5) is more than 5 µM; at hNav1.7 (use-dependent block, hNav1.7) it was more than 5 µM; at hNav1.3 (use-dependent block, hNav1.3) it was 4.6 µM.

Turning to `CC[C@H](C)[C@@H]1NC(=O)[C@@H]2CSSC[C@@H]3NC(=O)[C@H](C(C)C)NC(=O)[C@H](CC(C)C)NC(=O)[C@H](CC(N)=O)NC(=O)[C@@H]4CCCN4C(=O)[C@H](CCCNC(=N)N)NC(=O)[C@H](CSSC[C@H](NC(=O)[C@@H](N)CC(=O)O)C(=O)N[C@@H](CC(C)C)C(=O)NCC(=O)N[C@@H](Cc4ccccc4)C(=O)N[C@@H](CCSC)C(=O)N[C@@H](CCCNC(=N)N)C(=O)N[C@@H](CCCCN)C(=O)N2)NC(=O)[C@H](CSSC[C@@H](C(=O)N[C@@H](CCCCN)C(=O)N[C@@H](Cc2ccc(O)cc2)C(=O)N[C@H](C(=O)N[C@@H](Cc2ccccc2)C(N)=O)C(C)C)NC(=O)[C@H](Cc2cn(C)c4ccccc24)NC(=O)[C@H](CCCCN)NC(=O)[C@H](Cc2c[nH]cn2)NC(=O)[C@H]([C@@H](C)O)NC(=O)[C@H](CCCNC(=N)N)NC(=O)[C@H](CO)NC3=O)NC(=O)[C@H](CCCCN)NC(=O)[C@H](CC(=O)O)NC(=O)[C@H](CC(N)=O)NC(=O)[C@H](CC(=O)O)NC(=O)[C@@H]2CCCN2C1=O` [compound 361], the IC50 on hNav1.5 (Table 24, use, […]) worked out at 12.2 µM; on hNav1.7 (Table 24, use, […]), 3.89 µM; at hNav1.3 (Table 24, use, […]) it was 4.58 µM.

With `CC[C@H](C)[C@@H]1NC(=O)[C@@H]2CSSC[C@@H]3NC(=O)[C@H](C(C)C)NC(=O)[C@H](CC(C)C)NC(=O)[C@H](CC(N)=O)NC(=O)[C@@H]4CCCN4C(=O)[C@H](CCCNC(=N)N)NC(=O)[C@H](CSSC[C@H](NC(=O)[C@@H](N)CC(=O)O)C(=O)N[C@@H](CC(C)C)C(=O)NCC(=O)N[C@@H](C)C(=O)N[C@@H](CCSC)C(=O)N[C@@H](CCCNC(=N)N)C(=O)N[C@@H](CCCCN)C(=O)N2)NC(=O)[C@H](CSSC[C@@H](C(=O)N[C@@H](CCCCN)C(=O)N[C@@H](Cc2ccc(O)cc2)C(=O)N[C@H](C(=O)N[C@@H](Cc2ccccc2)C(N)=O)C(C)C)NC(=O)[C@H](Cc2c[nH]c4ccccc24)NC(=O)[C@H](Cc2ccccc2)NC(=O)[C@H](Cc2c[nH]cn2)NC(=O)[C@H]([C@@H](C)O)NC(=O)[C@H](CCCNC(=N)N)NC(=O)[C@H](CO)NC3=O)NC(=O)[C@H](CCCCN)NC(=O)[C@H](CC(=O)O)NC(=O)[C@H](CC(N)=O)NC(=O)[C@H](CC(=O)O)NC(=O)[C@@H]2CCCN2C1=O` [compound 764] (H-DCLGAMRKCIPDNDKCCRPNLVCSRTHFWCKYVF-NH2; disulfide 2-17, 9-23, 16-30), the IC50 at hNav1.5 (use-dependent block, hNav1.5) is 41.4 µM; at hNav1.7 (use-dependent block, hNav1.7) it was 4.1 µM; at hNav1.3 (use-dependent block, hNav1.3) it was more than 5 µM.
